Data published in patent EP4592286A1, “MACROCYCLIC NITROGEN-CONTAINING CROWN ETHER COMPOUND AND USE THEREOF AS PROTEIN KINASE INHIBITOR” (Artivila Biopharma, priority 2022, dated 2024).

Assays:
JAK1 [1] = molecular target: T1, JAK1 (Homo sapiens, UniProt P23458); experiment: JAKs cell activity test: detection of pSTAT6 in THP1 cells induced by JAK1_IL-4; format: cell-based; settings: pSTAT6, IL-4-induced THP1 cells
Procedure: Detection of pSTAT6 in THP1 cells induced by JAK1_IL-4
(§1) THP1 cells were collected by centrifugation, resuspended with 1×HBSS, counted and diluted to a certain cell density. They were inoculated in a 384-well plate and cultured in a saturated humidity incubator with 37 °C and 5% CO2. The compound (DMSO final volume of 0.3%) was added to THP1 cells (10 doses in duplicates) and cultured in a saturated humidity incubator with 37 °C and 5% CO2. hIL-4 was added to stimulate cells and cultured in a saturated humidity incubator with 37 °C and 5% CO2. The lysis solution was added and incubated at room temperature. According to the instructions of AlphaLISA SureFire Ultra p-STAT6 detection kit, the lysis solution was transferred to pSTAT6 detection system, and the ALPHA signal was read by PE Envision microplate reader. The inhibition rate Inh%=((DMSO-sample)/(DMSO-background))×100 was calculated. IC50 was obtained by fitting with GraphPad Prism non-linear regression equation, and y=Bottom+(Top-Bottom)/(1+10^((LogIC50-x)×hillslope)), where x was the concentration of the compound and y was the inhibition rate.

JAK2 = JAK2 (Homo sapiens, UniProt O60674); experiment: experiment of inhibiting kinase activity (Caliper mobility shift assay), JAK2; format: biochemical; settings: for inhibition at 0.01 µM: at 10 nM; for inhibition at 0.01 µM / inhibition at 0.1 µM: read-out: inhibition rate JAK2; for inhibition at 0.1 µM: at 100 nM; for IC50: kinase activity assay, Table 3
Chain of JAK2 (O60674 whole entry): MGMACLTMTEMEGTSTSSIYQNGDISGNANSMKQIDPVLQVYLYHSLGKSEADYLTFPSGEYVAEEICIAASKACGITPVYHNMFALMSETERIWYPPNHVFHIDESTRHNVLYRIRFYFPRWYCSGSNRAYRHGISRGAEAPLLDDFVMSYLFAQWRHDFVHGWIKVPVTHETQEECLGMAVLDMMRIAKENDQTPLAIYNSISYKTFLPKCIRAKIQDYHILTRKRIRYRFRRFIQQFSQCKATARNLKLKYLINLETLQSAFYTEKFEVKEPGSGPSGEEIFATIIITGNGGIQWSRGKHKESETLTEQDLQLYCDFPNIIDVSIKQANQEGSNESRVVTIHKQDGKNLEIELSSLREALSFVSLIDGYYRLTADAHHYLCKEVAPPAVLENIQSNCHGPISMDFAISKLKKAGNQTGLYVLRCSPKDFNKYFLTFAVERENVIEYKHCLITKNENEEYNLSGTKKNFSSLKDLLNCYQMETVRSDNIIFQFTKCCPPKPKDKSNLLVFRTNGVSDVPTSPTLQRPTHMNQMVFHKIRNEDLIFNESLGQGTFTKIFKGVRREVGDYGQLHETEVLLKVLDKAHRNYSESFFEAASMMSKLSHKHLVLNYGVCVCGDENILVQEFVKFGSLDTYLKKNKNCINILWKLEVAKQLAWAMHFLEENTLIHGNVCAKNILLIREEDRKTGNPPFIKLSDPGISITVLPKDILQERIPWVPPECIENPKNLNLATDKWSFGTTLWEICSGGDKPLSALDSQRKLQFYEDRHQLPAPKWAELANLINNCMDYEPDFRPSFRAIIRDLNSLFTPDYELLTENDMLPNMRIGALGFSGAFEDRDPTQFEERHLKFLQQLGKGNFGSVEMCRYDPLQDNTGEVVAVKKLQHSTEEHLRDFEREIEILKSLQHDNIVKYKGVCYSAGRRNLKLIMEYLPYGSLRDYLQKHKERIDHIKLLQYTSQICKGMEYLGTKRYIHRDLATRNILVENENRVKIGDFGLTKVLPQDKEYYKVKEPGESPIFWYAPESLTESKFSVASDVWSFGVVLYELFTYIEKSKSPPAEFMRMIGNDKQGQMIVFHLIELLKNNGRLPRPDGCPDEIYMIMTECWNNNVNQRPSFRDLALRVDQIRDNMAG
Method in brief: (§2)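 IC50 values come from variable-slope fits of % conversion inhibition versus log compound concentration. Kinase and inhibitor were preincubated for 10 min at room temperature, and the reaction was then initiated with ATP and substrate and read by mobility shift.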

JAK1 [2] = molecular target: T1, JAK1; experiment: experiment of inhibiting kinase activity (Caliper mobility shift assay), JAK1; format: biochemical; settings: for inhibition at 0.1 µM: at 100 nM; for IC50: kinase activity assay, Table 3
Method in brief: as §2

LRRK2 = LRRK2 (Homo sapiens, UniProt Q5S007); experiment: experiment of inhibiting kinase activity, LRRK2; format: biochemical; settings: for inhibition at 0.1 µM: at 100 nM; for IC50: kinase activity assay, Table 3
Chain of LRRK2 (Q5S007 whole entry): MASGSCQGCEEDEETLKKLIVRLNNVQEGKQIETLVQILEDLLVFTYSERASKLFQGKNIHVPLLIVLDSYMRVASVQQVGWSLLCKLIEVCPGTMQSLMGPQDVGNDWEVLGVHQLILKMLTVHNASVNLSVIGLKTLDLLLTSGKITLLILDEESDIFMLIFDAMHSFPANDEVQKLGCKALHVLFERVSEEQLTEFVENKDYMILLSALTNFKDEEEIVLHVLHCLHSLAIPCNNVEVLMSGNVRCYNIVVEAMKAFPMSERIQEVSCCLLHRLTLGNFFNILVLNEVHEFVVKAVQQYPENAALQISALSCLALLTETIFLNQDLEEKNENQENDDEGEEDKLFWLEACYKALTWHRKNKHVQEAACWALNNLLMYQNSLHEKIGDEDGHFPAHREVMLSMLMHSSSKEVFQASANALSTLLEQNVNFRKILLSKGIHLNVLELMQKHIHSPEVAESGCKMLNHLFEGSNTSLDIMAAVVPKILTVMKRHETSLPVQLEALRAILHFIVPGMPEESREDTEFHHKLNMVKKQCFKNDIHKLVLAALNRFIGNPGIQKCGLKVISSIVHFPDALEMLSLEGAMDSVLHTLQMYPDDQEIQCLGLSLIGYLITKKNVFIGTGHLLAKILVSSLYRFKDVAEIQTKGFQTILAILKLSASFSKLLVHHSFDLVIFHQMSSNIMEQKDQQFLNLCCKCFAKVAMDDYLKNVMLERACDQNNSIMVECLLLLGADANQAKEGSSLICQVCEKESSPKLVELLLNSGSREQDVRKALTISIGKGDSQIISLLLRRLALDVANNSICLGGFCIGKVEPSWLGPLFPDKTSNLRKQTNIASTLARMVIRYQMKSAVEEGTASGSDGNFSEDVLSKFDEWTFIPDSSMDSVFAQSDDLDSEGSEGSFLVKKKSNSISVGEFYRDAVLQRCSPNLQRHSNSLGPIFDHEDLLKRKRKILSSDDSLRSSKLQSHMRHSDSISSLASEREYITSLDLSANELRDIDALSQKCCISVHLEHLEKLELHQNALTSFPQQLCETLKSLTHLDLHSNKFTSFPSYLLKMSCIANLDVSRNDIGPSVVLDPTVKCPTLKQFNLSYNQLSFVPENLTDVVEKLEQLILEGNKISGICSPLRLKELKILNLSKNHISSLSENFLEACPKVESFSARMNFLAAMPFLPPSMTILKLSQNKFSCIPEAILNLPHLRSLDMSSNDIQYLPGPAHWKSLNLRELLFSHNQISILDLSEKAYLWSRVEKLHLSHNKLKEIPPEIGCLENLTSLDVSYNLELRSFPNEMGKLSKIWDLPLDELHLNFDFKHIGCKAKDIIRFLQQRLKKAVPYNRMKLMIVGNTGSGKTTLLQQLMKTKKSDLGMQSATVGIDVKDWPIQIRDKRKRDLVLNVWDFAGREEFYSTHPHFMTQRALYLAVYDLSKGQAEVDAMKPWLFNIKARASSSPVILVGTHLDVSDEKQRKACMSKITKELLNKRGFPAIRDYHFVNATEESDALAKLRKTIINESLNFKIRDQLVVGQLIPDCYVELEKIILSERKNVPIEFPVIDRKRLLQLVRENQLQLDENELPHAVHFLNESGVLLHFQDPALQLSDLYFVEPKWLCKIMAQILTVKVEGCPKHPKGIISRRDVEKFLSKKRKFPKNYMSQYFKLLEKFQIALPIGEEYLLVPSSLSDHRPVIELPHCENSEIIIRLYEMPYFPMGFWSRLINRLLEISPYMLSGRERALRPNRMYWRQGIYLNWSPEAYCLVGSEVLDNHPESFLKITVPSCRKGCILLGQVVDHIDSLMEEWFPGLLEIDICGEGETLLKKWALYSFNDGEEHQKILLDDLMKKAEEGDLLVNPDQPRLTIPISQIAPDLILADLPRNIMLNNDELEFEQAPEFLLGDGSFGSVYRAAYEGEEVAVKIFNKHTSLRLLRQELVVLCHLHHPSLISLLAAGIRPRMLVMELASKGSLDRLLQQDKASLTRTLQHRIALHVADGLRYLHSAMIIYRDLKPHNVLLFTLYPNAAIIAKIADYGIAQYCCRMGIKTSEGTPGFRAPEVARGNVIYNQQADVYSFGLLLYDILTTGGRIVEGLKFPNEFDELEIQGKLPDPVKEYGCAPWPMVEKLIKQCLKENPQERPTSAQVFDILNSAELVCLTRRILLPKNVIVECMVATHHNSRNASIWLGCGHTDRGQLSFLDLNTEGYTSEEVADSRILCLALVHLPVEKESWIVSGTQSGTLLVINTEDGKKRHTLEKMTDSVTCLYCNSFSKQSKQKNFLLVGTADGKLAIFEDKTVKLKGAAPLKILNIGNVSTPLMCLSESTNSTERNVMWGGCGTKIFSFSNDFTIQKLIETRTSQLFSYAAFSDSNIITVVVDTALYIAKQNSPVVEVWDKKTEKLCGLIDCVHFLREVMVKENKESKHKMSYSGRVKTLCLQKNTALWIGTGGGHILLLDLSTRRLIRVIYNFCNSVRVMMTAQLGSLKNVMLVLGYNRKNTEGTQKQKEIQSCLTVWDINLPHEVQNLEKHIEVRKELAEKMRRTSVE
Procedure: (§3) The inhibition rates of tested compounds on JAK1, JAK2, JAK3, TYK2, CDK7, CDK9, EGFR (T790M) and LRRK2 kinases were measured. The test concentrations of the compounds were 10 nM and 100 nM, and the detection was performed by replicate wells. Alternatively, compounds were 3-fold serial diluted from 10 µM for 10 concentrations in replicate wells.

JAK3 [3] = molecular target: T2, JAK3 (Mus musculus, UniProt Q62137); experiment: JAKs cell activity test: JAK3_pSTAT5 in IL-2-induced CTLL-2 cells; format: cell-based; settings: pSTAT5, IL-2-induced CTLL-2 cells
T2 construct: endogenous in cells; host or cells: CTLL-2
T2 sequence (Q62137 1-1100): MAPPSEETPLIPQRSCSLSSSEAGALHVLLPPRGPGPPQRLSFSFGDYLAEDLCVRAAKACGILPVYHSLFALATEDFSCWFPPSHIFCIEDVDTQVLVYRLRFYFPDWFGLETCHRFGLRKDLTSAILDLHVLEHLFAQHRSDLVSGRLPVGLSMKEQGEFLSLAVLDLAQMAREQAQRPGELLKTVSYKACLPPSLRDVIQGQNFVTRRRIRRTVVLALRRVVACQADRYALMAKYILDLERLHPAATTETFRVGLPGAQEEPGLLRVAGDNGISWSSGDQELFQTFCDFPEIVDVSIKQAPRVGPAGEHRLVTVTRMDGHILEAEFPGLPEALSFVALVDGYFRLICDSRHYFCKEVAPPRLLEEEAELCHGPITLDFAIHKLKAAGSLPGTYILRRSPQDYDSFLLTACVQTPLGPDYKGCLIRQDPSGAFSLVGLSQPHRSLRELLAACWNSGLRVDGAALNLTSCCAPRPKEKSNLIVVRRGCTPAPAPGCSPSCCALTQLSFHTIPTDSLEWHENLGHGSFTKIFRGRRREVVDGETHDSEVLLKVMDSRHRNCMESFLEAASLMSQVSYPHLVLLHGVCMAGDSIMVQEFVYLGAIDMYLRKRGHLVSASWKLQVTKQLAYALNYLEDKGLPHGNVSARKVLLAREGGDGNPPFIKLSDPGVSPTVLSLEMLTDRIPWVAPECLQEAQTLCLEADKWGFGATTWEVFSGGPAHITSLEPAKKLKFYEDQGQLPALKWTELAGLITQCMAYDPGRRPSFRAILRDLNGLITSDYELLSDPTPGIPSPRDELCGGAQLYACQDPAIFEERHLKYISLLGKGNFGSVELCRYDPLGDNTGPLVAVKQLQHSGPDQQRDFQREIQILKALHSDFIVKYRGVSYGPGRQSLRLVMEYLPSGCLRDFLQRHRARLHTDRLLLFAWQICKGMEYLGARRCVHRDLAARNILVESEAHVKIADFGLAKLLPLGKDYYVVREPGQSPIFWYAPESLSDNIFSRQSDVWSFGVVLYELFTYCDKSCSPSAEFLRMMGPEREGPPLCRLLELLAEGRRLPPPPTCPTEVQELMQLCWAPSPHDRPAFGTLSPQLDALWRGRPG
Procedure: as §1
JAK2_pSTAT5 was tesed in IL-3-induced BAF3 cells according to the above steps, and JAK3_pSTAT5 was tested in IL-2-induced CTLL-2 cells (without serum stimulation) according to the above steps.

JAK3 [4] = molecular target: T3, JAK3 (Homo sapiens, UniProt P52333); experiment: experiment of inhibiting kinase activity (Caliper mobility shift assay), JAK3; format: biochemical; settings: at 10 nM; read-out: inhibition rate JAK3
T3 sequence (P52333 1-1124): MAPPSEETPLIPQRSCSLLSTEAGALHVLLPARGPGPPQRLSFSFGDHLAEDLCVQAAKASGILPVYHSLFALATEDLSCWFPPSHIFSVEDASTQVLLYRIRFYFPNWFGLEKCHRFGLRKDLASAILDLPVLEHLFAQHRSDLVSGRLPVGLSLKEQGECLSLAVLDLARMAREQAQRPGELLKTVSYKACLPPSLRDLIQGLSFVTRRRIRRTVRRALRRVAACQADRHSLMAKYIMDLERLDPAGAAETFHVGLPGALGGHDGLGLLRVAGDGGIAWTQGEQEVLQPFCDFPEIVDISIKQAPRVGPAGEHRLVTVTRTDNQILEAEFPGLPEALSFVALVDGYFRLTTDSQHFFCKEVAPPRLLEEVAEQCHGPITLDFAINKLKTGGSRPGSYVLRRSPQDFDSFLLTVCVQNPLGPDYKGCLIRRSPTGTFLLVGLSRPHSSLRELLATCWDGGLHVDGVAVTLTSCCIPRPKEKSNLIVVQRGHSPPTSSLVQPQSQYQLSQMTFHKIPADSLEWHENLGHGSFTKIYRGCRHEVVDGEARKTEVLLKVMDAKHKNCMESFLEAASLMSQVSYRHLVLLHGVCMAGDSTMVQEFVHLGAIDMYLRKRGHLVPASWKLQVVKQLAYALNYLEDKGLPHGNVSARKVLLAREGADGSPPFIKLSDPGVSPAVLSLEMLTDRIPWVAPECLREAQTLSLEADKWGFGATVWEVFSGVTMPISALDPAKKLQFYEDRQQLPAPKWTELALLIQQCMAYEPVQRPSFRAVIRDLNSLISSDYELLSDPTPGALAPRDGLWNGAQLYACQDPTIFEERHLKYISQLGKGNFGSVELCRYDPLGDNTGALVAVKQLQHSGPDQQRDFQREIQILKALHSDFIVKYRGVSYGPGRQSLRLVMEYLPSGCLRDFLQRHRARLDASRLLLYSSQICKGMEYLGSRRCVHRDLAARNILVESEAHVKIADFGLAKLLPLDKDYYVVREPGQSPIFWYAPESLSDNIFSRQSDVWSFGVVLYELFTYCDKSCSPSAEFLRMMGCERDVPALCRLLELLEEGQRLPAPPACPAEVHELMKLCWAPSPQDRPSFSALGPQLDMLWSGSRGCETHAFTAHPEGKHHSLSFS
Method in brief: as §2

TYK2 = TYK2 (Homo sapiens, UniProt P29597); experiment: experiment of inhibiting kinase activity, TYK2; format: biochemical; settings: at 10 nM; read-out: inhibition rate TYK2
Procedure: as §3

wild-type LRRK2 = molecular target: T4, wild-type LRRK2 (Homo sapiens, UniProt Q5S007); experiment: detection of phosphorylated S935 in HEK293T overexpressing wild-type LRRK2; format: cell-based; settings: pS935, HEK293T overexpressing wild-type LRRK2, 1.5 hours
T4 construct: pCMV-flag-WT LRRK2 (full-length); expressed in transfected cells; host or cells: HEK293T
T4 sequence (Q5S007 whole entry): as the sequence (Q5S007 whole entry) above
Procedure: (§4) Detection of phosphorylated S935 in HEK293T Overexpressing full-length LRRK2 (G2019S) or wild-type LRRK2
(§5) HEK293T cells was inoculated into a 6-well plate and cultured overnight. The next day, they were transiently transfected with plasmid pcDNA5-FRT/TO-FLAG LRRK2 (G2019S, full-length) or pCMV-flag-WT LRRK2 (full-length) by using Superfect transfection reagent and cultured at 37°C and 5% CO2 for 20-24 hours. The next day, cells were collected, resuspended at a density of 0.48×10^6 cells/ml, and inoculated into a 384-well plate at 50 microliters/well. Compound or DMSO solutions (volume ratio of 0.5%) were added by Tecan, and cultured at 37°C and 5% CO2 for 1.5 hours. After 1.5 hours, the supernatant was discarded, 50 microliters of 8% PFA were added in each well to fix the cells, and the cells were incubated at room temperature for 1 hour. The plate was washed with EL406 plate washer for three times, with 115 microliters of PBST per well, and the culture plate was patted to dryness. The cells were blocked with 50 microliters/well of Licor Odyssey blocking solution (0.1% Tween 20) at room temperature for 1.5 hours. The blocking solution was discarded and the culture plate was patted to dryness. 20 microliters of primary antibody (1:1000(pS935), diluted with Licor Odyssey buffer (0.1% Tween20)) was added into each well, and incubated at 4 °C overnight. The next day, the first antibody was discarded and washing was performed with PBST for five times. 20 microliters of secondary antibody (diluted with Licor Odyssey buffer (0.1% Tween20) at 1:500 and stained with DNA at 1:2000) were added into each well, and incubated at room temperature for 1 hour. The second antibody was discarded, and washing was performed for three times with PBST. The fluorescence intensity was measured by LICOR Odyssey imager Scanner, and the data was analyzed.

LRRK2 (G2019S) = molecular target: T5, LRRK2 (G2019S) (Homo sapiens, UniProt Q5S007, G2019S); experiment: detection of phosphorylated S935 in HEK293T overexpressing full-length LRRK2 (G2019S); format: cell-based; settings: pS935, HEK293T overexpressing LRRK2 (G2019S), 1.5 hours
T5 construct: pcDNA5-FRT/TO-FLAG LRRK2 (G2019S, full-length); expressed in transfected cells; host or cells: HEK293T
T5 sequence (Q5S007 whole entry G2019S): as the sequence (Q5S007 whole entry) above, with G2019S counted along it
Procedure: as §4, §5

[5] = read-out: inhibition rate LRRK2

T1 sequence (P23458 whole entry): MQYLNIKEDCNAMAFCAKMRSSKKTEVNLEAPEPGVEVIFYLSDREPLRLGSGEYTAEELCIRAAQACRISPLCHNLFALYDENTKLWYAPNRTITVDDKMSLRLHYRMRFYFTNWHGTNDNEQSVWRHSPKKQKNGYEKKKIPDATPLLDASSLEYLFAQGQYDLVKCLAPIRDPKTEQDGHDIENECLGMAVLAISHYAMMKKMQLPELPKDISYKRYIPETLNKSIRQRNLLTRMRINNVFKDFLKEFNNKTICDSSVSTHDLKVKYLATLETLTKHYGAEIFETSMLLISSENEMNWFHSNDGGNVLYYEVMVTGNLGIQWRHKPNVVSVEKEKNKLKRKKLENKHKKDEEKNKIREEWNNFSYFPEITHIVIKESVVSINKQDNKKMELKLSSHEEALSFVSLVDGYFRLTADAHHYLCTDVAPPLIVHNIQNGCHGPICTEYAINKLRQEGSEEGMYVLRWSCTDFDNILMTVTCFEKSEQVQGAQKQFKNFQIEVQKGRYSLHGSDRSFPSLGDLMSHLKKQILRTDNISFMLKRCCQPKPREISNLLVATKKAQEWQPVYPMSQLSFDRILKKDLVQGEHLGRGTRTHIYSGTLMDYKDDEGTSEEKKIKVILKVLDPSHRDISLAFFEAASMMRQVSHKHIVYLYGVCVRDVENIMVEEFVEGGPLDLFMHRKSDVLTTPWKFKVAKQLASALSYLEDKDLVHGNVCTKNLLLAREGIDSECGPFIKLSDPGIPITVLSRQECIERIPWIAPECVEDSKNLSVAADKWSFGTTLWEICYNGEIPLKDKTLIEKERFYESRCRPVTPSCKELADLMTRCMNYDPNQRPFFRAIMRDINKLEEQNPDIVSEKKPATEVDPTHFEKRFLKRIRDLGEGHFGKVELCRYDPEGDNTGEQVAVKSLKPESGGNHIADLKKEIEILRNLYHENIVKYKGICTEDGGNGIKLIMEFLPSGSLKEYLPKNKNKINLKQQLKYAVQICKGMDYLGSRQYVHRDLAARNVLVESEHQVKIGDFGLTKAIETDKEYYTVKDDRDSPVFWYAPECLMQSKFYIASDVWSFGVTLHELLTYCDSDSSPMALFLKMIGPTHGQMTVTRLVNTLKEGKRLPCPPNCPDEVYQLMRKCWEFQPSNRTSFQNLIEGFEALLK

| Compound | EC50 (JAK1 [1]) [µM] | inhibition at 0.01 µM (JAK2) [%] | inhibition at 0.1 µM (JAK2) [%] | IC50 (JAK2) [µM] | inhibition at 0.01 µM (JAK1 [2]; at 10 nM, read-out: inhibition rate JAK1) [%] | inhibition at 0.1 µM (JAK1 [2]; read-out: inhibition rate JAK1) [%] | IC50 (JAK1 [2]) [µM] | inhibition at 0.1 µM (LRRK2; [5]) [%] | IC50 (LRRK2) [µM] | EC50 (JAK3 [3]) [µM] | inhibition at 0.01 µM (JAK3 [4]) [%] | inhibition at 0.01 µM (TYK2) [%] | EC50 (wild-type LRRK2) [µM] | EC50 (LRRK2 (G2019S)) [µM] | inhibition at 0.01 µM (LRRK2; at 10 nM, read-out: inhibition rate LRRK2) [%] |
| --- | --- | --- | --- | --- | --- | --- | --- | --- | --- | --- | --- | --- | --- | --- | --- |
| CN1CCOc2ccc(Nc3nc(-c4cnn(C(CC#N)C5CCCC5)c4)c4cc[nH]c4n3)cc2OCC1 (centres unmarked) [Example 27, 3-cyclopentyl-3-(4-(2-((4-methyl-3,4,5,6-tetrahydro-2H-benzo[b][1,4,7]dioxazolin-9-yl)amino)-7H-pyrrolo[2,3-d]pyrimidin-4-yl)-1H-pyrazol-1-yl)propanenitrile] | < 0.05 | > 80 | > 80 | < 0.05 | 40 to 79 | > 80 | < 0.05 | > 80 | < 0.05 | < 0.05 | – | – | – | – | – |
| CN1CCOc2ccc(Nc3nc(Nc4ccccc4P(C)(C)=O)c4cc[nH]c4n3)cc2OCC1 [Example 73, dimethyl(2-((2-((4-methyl-3,4,5,6-tetrahydro-2H-benzo[b][1,4,7]dioxazolin-9-yl)amino)-7H-pyrrolo[2,3-d]pyrimidin-4-yl)amino)phenyl)phosphine oxide] | – | > 80 | – | – | – | – | – | – | < 0.05 | – | > 80 | 40 to 79 | < 0.5 | < 0.5 | > 80 |
| CN1CCOc2ccc(Nc3nc(-c4ccc(C(=O)NCC#N)cc4)c4cc[nH]c4n3)cc2OCC1 [Example 2, N-(cyanomethyl)-4-(2-((4-methyl-3,4,5,6-tetrahydro-2H-benzo[b][1,4,7]dioxazolin-9-yl)amino)-7H-pyrrolo[2,3-d]pyrimidin-4-yl)benzamide] | < 0.05 | 40 to 79 | > 80 | < 0.05 | – | > 80 | < 0.05 | > 80 | < 0.05 | – | – | – | < 0.5 | – | – |
